According to patent US20030017166A1, “Combination preparation for the therapy of immunological diseases” (priority 2001, published 2003):

Tests used:
[1] = system: contact allergy to nickel and cobalt (contact dermatitis); test: Contact dermatitis induced with nickel or cobalt vaseline preparations in volunteer test subjects; type: in vivo, human
Excerpt: Contact dermatitis was selected as a model disease for the large number of T cell-mediated immune reactions (generally: overshooting damaging immune reactions) since it can be induced by applying the contact allergens to the skin and the severity of the inflammatory reaction and immune reaction can readily be assessed by observing the skin symptoms.
The contact allergies were induced by applying preparations in white vaseline. These vaseline preparations contained either 1% cobaltII chloride or 5% nickelII sulfate.
For inducing the contact dermatitis, the vaseline preparation was applied once daily to an area of approx. 2×2 cm^2, usually on the upper arm or the lower arm.
The contact dermatitis was subdivided into the following levels in accordance with the extent of the inflammatory reaction:
Level 1: very minor inflammatory reaction, slight reddening of the skin;
Level 2: minor inflammatory reaction, reddening of the skin and possible itching;
Level 3: slight inflammatory reaction, reddening and edematous swelling of the skin, itching;
Level 4: moderate inflammatory reaction, reddening, edematous swelling, vesicles or blister formation, itching;
Level 5: pronounced inflammatory reaction: reddening, edematous swelling, vesicles and blister formation, weeping erosions and possible incrustation.
The severity of the inflammatory reaction which occurred was controlled by administering Ultralan® tablets systemically. When the antigen-specific regulatory immune response was induced, the inflammatory reaction was kept in the range of levels 1 and 2 by administering fluocortolone (Ultralan®). If a contact dermatitis of level 3 or higher developed despite the administration of Ultralan®, the dose of Ultralan® was then increased up to the next dosage level. If required, the dose was increased once again 2 days after the last increase in the dose.
As soon as it was no longer possible to observe any symptoms of the contact dermatitis at a given dosage level of Ultralan®, the dose was reduced on the following day and subsequently maintained once again until all the symptoms of the contact allergy had disappeared, after which the dose of Ultralan was reduced once again until, finally, it was no longer necessary to administer any Ultralan®.
As a rule, the following gradations in the daily doses of Ultralan® were employed: 20 mg, 15 mg, 10 mg, 7.5 mg, 5 mg, 2.5 mg and 0 mg.
An appropriate blood level of leflunomide was achieved by means of a loading dose of 100 mg on the first three consecutive days of the leflunomide therapy; after that, the leflunomide dose was reduced to 20 mg per day. Unless otherwise stated, this dose of leflunomide was maintained for up to 30 days after the time point at which the administration of flucortolone was terminated.
Subsequently, the leflunomide was eliminated at an accelerated rate from the body by means of administering 3× daily doses of 8 grams of cholestyramine over a period of 10 days.
As described above, the antigen is applied to the skin once a day using a preparation prepared from white vaseline. As a rule, the antigen was administered up to the tenth day after the last administration of leflunomide.
In the investigations into the development of a regulatory immune response in connection with the contact dermatitis, a fresh exposure to the antigen against which a regulatory immune response had been developed was carried out no earlier than 1 month after the last contact with the antigen.

[2] = system: allergic rhinitis/conjunctivitis against hazelnut pollen and grass pollen; test: Allergic rhinitis/conjunctivitis on exposure to hazelnut pollen or grass pollen in patients; type: in vivo, human
Excerpt: The effect of the combination therapy on type I allergy (allergic conjunctivitis and rhinitis) was investigated since type I allergy is an antibody-induced disease which is regulated by T cells. […] In the allergy investigations, contact with the antigen took place aerogenically, by exposure to hazelnut pollen or the pollen of grasses.
First of all, the test subjects were exposed to the allergen pollens in order to verify the existence of the allergy.
After a month, the two test subjects were given a loading dose of in each case 100 mg of leflunomide on 3 consecutive days. The test subjects were then given a constant daily dose of 20 mg of leflunomide.
On the 4th day of the leflunomide administration, the test subjects were exposed to one of the two allergens.
After these 30 days, the leflunomide was eliminated from the body in an accelerated manner by means of the 3× daily administration of cholestyramine over a period of 10 days. During this accelerated elimination, the daily exposure to antigen was continued.
In addition, the test subjects were able to use vasoconstrictors, such as Otriven® nasal drops and Yxin® eyedrops, to alleviate acute symptoms.
Neomycin sulfate was used, at a concentration of 50 mg/ml in physiological sodium chloride solution, as an immunomodulatory substance, as eyedrops and as a metered nasal spray. During the allergen exposure (season of airborne pollen), the neomycin solution was initially administered every 3 hours during the day. As soon as symptoms of an allergic reaction, such as severe itching, tears, flow of nasal secretion or sneezing impulses, occurred, this inflammatory reaction was suppressed, within the first 5 days, by using the dexametasone eyedrops, the dexamethasone nasal spray, xylometazoline nasal drops and Yxin® eyedrops. The steroids and the vasoconstrictors were administered as required.

rheumatoid arthritis = conditions: monotherapy; cited from earlier work
[3] = system: susceptibility to infection; conditions: clinical investigations and investigations on experimental animals; cited from earlier work

C[C@@H]1C[C@H]2[C@@H]3C[C@H](F)C4=CC(=O)C=C[C@]4(C)[C@H]3[C@@H](O)C[C@]2(C)[C@H]1C(=O)CO [Ultralan®, fluocortolone]
contact dermatitis while Ultralan was being reduced stepwise ([1]; Investigation 1.1, 4 test subjects, Ultralan alone, no leflunomide, continued allergen exposure): reappeared
time to complete disappearance of contact allergy symptoms ([1]; Investigation 1.1, Ultralan added to leflunomide and allergen, allergy adjusted to grade 1-2): 3 to 5 days
symptoms of contact allergy after brief Ultralan suppression and discontinuation ([1]; Investigation 1.5, allergen continued for further 2 weeks after Ultralan discontinued): no symptoms of any contact allergy appeared
symptoms of contact allergy after abrupt Ultralan discontinuation ([1]; Investigation 2.1, 2 test subjects, fully suppressive Ultralan dose for 4 weeks with leflunomide and allergen, one day after discontinuation): Massive symptoms of the contact allergy developed
time to disappearance of symptoms ([1]; Investigation 3.2, single administration of 5 mg Ultralan with simultaneous leflunomide): one
dose of Ultralan sufficient to restrict the symptoms of the contact allergy to levels 1 to 2 ([1]; systemic tablets, as a rule): at most 10 mg/day
allergic symptoms immediately after antigen exposure under Ultralan and vasoconstrictors ([2]; Investigation 4.1, 10 mg Ultralan, Otriven nasal drops, Yxin eyedrops, with leflunomide): only slight symptoms of an allergic reaction
time to complete disappearance of allergy symptoms directly after antigen exposure ([2]; Investigation 4.1, constant treatment with Ultralan and leflunomide): ≤ 4 days

C[C@@H]1C[C@H]2[C@@H]3CCC4=CC(=O)C=C[C@]4(C)[C@@]3(F)[C@@H](O)C[C@]2(C)[C@@]1(O)C(=O)CO [dexamethasone]
requirement for dexamethasone administrations, initial average ([2]; Investigation 5.1, under neomycin solution 50 mg/ml every 3 hours, start of first 5 days): 4 administrations per day
requirement for dexamethasone administrations, after decrease ([2]; Investigation 5.1, under neomycin solution, within the first 5 days): 2 administrations per day

Cc1oncc1C(=O)Nc1ccc(C(F)(F)F)cc1 [leflunomide, N-(4-trifluoromethylphenyl)-5-methylisoxazole-4-carboxamide]
symptoms of contact allergy on provocation with the antigen given during leflunomide ([1]; Investigation 1.1, 4 weeks after end of treatment cycle, 2 weeks provocation): did not appear in any of the test subjects
symptoms of the contact allergy during 30 days of daily leflunomide and antigen ([1]; Investigation 1.1, after steroids completely discontinued): not possible to observe any symptoms of the contact allergy
symptoms of the contact allergy during accelerated elimination of leflunomide ([1]; Investigation 1.1, cholestyramine over 10 days, continued allergen exposure): not observed in any of the test subjects
level of skin reaction (contact dermatitis levels 1-5) ([1]; Investigation 1.1, leflunomide 100 mg x 3 days then 20 mg/day, allergen from 4th day, within 2 days, before steroids): 3 to 4 level
level of contact dermatitis on exposure to the antigen not given during leflunomide ([1]; Investigation 1.2, 4 weeks later, within 2 days): 3 to 4 level
symptoms of contact allergy to the leflunomide-associated allergen applied on still inflamed skin ([1]; Investigation 1.3, allergen switched on 3rd day): persisted as long as the contact allergen was being administered
contact allergy on re-exposure to the leflunomide-associated antigen after inflammation regressed ([1]; Investigation 1.4, after 4 weeks break, exposure period of 2 weeks): did not react with any contact allergy
symptoms of contact allergy after switch to the leflunomide-associated antigen under inflammation ([1]; Investigation 1.5, period of 2 weeks): persisted
level of contact allergy on exposure to the antigen not given during leflunomide ([1]; Investigation 1.5, within 2 days): 3 to 4 level
symptoms of contact allergy on exposure to the leflunomide-associated allergen ([1]; Investigation 1.6, 4 weeks later, first 2 weeks of exposure): No symptoms of a contact allergy were observed
time to disappearance of inflammatory reactions after UV-A on the side with contact allergen ([1]; Investigation 1.6, continued allergen exposure): ≥ 7 days
symptoms of inflammation after UV-A irradiation on arm with contact allergen versus arm without ([1]; Investigation 1.6, identical irradiation of both arms): somewhat stronger
course of contact allergy on allergen exposure ([1]; Investigation 3.1, shortened 2-week phase, days following first reddening): increasing symptoms of a contact allergy
onset of slight reddening after beginning allergen exposure ([1]; Investigation 3.1, steroid-free leflunomide plus allergen phase shortened from 30 days to 2 weeks, exposure 4 weeks after discontinuing leflunomide): 3 to 4 days
regulatory immune response 4 weeks after treatment ([1]; Investigation 3.3, leflunomide and contact allergen continued for 20 days, then accelerated elimination): a stable antigen-specific regulatory immune response had developed
effect on rheumatoid arthritis when administered on its own (rheumatoid arthritis): able to reduce the progression of rheumatoid arthritis but is not able to cure the disease
reaction on first allergen exposure under leflunomide ([2]; Investigation 4.1, 2 test subjects, 4th day of leflunomide, before steroid): reacted immediately with allergic symptoms
allergy symptoms during steroid-free leflunomide plus antigen phase and accelerated elimination ([2]; Investigation 4.1, 30 days plus 10 days cholestyramine, daily antigen): no symptoms of an allergy appeared
allergic symptoms on re-exposure to the allergen given during leflunomide ([2]; Investigation 4.1, after one month break, daily exposure over 2 weeks): did not develop any symptoms of an allergic reaction
allergy symptoms on exposure to the antigen not given during leflunomide ([2]; Investigation 4.2, grass pollen dust 1x daily, within 2 days): developed symptoms of an allergy
allergy symptoms to the leflunomide-associated antigen under inflammatory conditions ([2]; Investigation 4.3, 3rd and 4th day, only leflunomide-associated antigen administered): Symptoms of an allergy developed
allergy symptoms on re-exposure to the leflunomide-associated antigen ([2]; Investigation 4.4, after a further 4 weeks, 2 weeks of daily exposure): No symptoms of an allergy developed
susceptibility to infection [3]: does not increase susceptibility to infection

Neomycin sulfate
allergy symptoms on intensified antigen exposure during neomycin ([2]; Investigation 5.1, 2 test subjects, direct exposure to hazelnut pollen twice daily, no dexamethasone or cromoglycic acid): no allergy symptoms appeared in either of the test subjects
allergy symptoms on re-exposure to the allergen given during neomycin ([2]; Investigation 5.1, after a month break, daily exposure for 2 weeks): did not exhibit any allergy symptoms
allergy symptoms on exposure to the antigen not given during neomycin ([2]; Investigation 5.2, dust of grass pollens 1x daily, within 2 days): developed symptoms of an allergy
allergy symptoms to the neomycin-associated antigen under inflammatory conditions ([2]; Investigation 5.3, 3rd and 4th day, only neomycin-associated antigen administered): Symptoms of an antigy developed
allergy symptoms on re-exposure to the neomycin-associated antigen ([2]; Investigation 5.4, after another break of 4 weeks, 2 weeks of daily exposure): had not developed any allergy symptoms
